This note sets out measurements from ChEMBL document CHEMBL5131455 (Bioorg Med Chem Lett, 2022).

Converted amounts (≈) assume the structure as drawn. Where only a bound is given, the exact number is not on record here.

The nature of series [1]: Drug uptake in male rat central nervous system at 30 mg/kg, po. The conditions noted are these: in vivo, BLD = below limit of detection. Type of series: ADME, organism-based.
Series [2] is described as follows: Drug uptake in female rat central nervous system at 30 mg/kg, po. It counts as ADME, organism-based. The conditions noted are these: in vivo.
Series [3] is described as follows: AUC (0 to 8 hrs) in rat plasma at 30 mg/kg, po relative to radioactivity of 14-C AUC. As to conditions: in vivo. It counts as ADME, organism-based.
Series [4] can be described thus: AUC (0 to 8 hrs) in human plasma at 80 mg, po qd administered as water suspension by HPLC analysis relative to radioactivity of 14-C AUC. It counts as ADME, organism-based. As to conditions: in vivo.
Series [5] can be described thus: Solubility of the compound in chloride free pH 6.8 phosphate buffer incubated up to 72 hrs by shake flask method. Type of series: physicochemical.
A short description of series [6]: Solubility of the compound in pH 1 0.1N HCl buffer incubated up to 72 hrs by shake flask method. Type of series: physicochemical.
The nature of series [7]: Apparent permeability in MDCK cells. Type of series: ADME, cell-based, Canis lupus familiaris. As to conditions: dog, MDCK-MDR1.
The nature of series [8]: AUC in rat plasma at 30 mg/kg, po in presence of [14-C]asciminib relative to radioactivity of [14-C] AUC. Type of series: ADME, organism-based. As to conditions: in vivo.
For series [9], the target named is Tyrosine-protein kinase ABL1 (Homo sapiens, UniProt P00519). Put plainly: Inhibition of transphosphorylation of ABL1 SH1-3 domain (64 to 515 residues) (unknown origin) expressed in Escherichia coli using FITC-Ahx-EAIYAAPFAKKK-NH2) as substrate measured after 60 mins by caliper method.
For series [10], the system named is BaF3. Put plainly: Antiproliferative activity against mouse BaF3 cells expressing BCR-ABL by ATP-luminescence assay. It counts as functional, cell-based.
Series [11] can be described thus: Antiproliferative activity against human KBM-7 cells measured after 72 hrs by celltiter-glo luminescent cell viability assay. It counts as functional, cell-based. A general note: In ATP-based viability assays light output follows the ATP content of the culture.
A short description of series [12]: Antiproliferative activity against human CMK-86 cells measured after 72 hrs by celltiter-glo luminescent cell viability assay. It counts as functional, cell-based.
Series [13] is described as follows: Antiproliferative activity against human SNU-213 cells measured after 72 hrs by celltiter-glo luminescent cell viability assay. It counts as functional, cell-based.
Series [14] can be described thus: Antiproliferative activity against human Fu97 cells measured after 72 hrs by celltiter-glo luminescent cell viability assay. It counts as functional, cell-based.
The target of series [15] is T1, Mu-type opioid receptor (Homo sapiens, UniProt P35372). Description: Displacement of [3H]morphine binding to recombinant human full-length MOR expressed in CHO-K1 cells at 30 uM measured after 60 mins by scintillation counting analysis relative to control. It counts as cell-based. A general note: Loss of bound radioactivity is the signal in a displacement assay; it reports binding, not function.

For series [16], the target named is T1, Mu-type opioid receptor. Put plainly: Displacement of [3H]morphine binding to recombinant human full-length MOR expressed in CHO-K1 cells measured after 60 mins by scintillation counting analysis. Type of series: cell-based.
In series [17] the target is Voltage-gated inwardly rectifying potassium channel KCNH2 (Homo sapiens, UniProt Q12809). Put plainly: Displacement of [3H]dofetilide from human ERG expressed in HEK293 cells measured after 45 mins by topcount scintillation counting method. Type of series: toxicity, cell-based.
The target in series [18] is hERG (KCNH2) (Homo sapiens, UniProt Q12809). Description: Displacement of [3H]dofetilide from human ERG expressed in HEK293 cells at 30 uM measured after 45 mins by topcount scintillation counting method relative to control. The conditions noted are these: HEK293 cells that express hERG, probe [3H]dofetilide. It counts as toxicity, cell-based.
Series [19] can be described thus: Apparent permeability across apical to basolateral side in human Caco-2 cells. It counts as ADME, cell-based.
The nature of series [20]: Apparent permeability across basolateral to apical side in human Caco-2 cells. It counts as ADME, cell-based. On the technique in general: Caco-2 cells form a polarised layer with tight junctions and transporters.
Series [21] in a line: Efflux ratio of apparent permeability across basolateral to apical side over apical to basolateral side in human Caco2 cells. It counts as ADME, cell-based. The conditions noted are these: Caco-2.
In series [22] the test system is MDR1. Put plainly: Efflux ratio of apparent permeability across basolateral to apical side over apical to basolateral side in MDCK-MDR1 cells. Type of series: ADME, cell-based, Canis lupus familiaris. The conditions noted are these: dog.
The nature of series [23]: Intrinsic clearance in mouse liver microsomes. Type of series: ADME, Microsome. The conditions noted are these: read-out: CLH.
The nature of series [24]: Intrinsic clearance in rat liver microsomes. Type of series: ADME, Microsome. The conditions noted are these: read-out: CLH.
A short description of series [25]: Intrinsic clearance in dog liver microsomes. The conditions noted are these: read-out: CLH. It counts as ADME, Canis lupus familiaris, Microsome.
A short description of series [26]: Intrinsic clearance in human liver microsomes. The conditions noted are these: read-out: CLH. Type of series: ADME, Microsome.
Series [27] can be described thus: Clearance in C57BL/6 mouse at 1 mg/kg, iv. It counts as ADME, organism-based. As to conditions: in vivo.
The nature of series [28]: Volume of distribution at steady state in C57BL/6 mouse at 1 mg/kg, iv. As to conditions: in vivo, read-out: Vdss. Type of series: ADME, organism-based.
A short description of series [29]: Half life in C57BL/6 mouse at 1 mg/kg, iv. It counts as ADME, organism-based. The conditions noted are these: in vivo.
Series [30] is described as follows: Dose normalized AUC (infinity) in C57BL/6 mouse at 1 mg/kg, iv. It counts as ADME, organism-based. As to conditions: in vivo.
Series [31] in a line: Dose normalized AUC (infinity) in C57BL/6 mouse brain at 10 mg/kg, ip measured up to 4 hrs. It counts as ADME, organism-based. As to conditions: in vivo.
The nature of series [32]: Tmax in C57BL/6 mouse at 30 mg/kg, ip. It counts as ADME, organism-based. As to conditions: in vivo.
Series [33] is described as follows: Dose normalized Cmax in C57BL/6 mouse at 30 mg/kg, ip. It counts as ADME, organism-based. As to conditions: in vivo.
Series [34] in a line: Dose normalized AUC (infinity) in C57BL/6 mouse blood at 30 mg/kg, ip. Type of series: ADME, organism-based. As to conditions: in vivo.
Series [35] in a line: Dose normalized AUC (infinity) in C57BL/6 mouse brain at 30 mg/kg, ip. Type of series: ADME, organism-based. The conditions noted are these: in vivo.
A short description of series [36]: Unbound brain to plasma concentration ratio in C57BL/6 mouse brain at 30 mg/kg, ip. As to conditions: brain and plasma, read-out: K(p,uu,brain). It counts as ADME, organism-based.
Series [37] in a line: Tmax in C57BL/6 mouse at 30 mg/kg, po. Type of series: ADME, organism-based. The conditions noted are these: in vivo.
A short description of series [38]: Dose normalized Cmax in C57BL/6 mouse at 30 mg/kg, po. Type of series: ADME, organism-based. The conditions noted are these: in vivo.
The nature of series [39]: Dose normalized AUC (infinity) in C57BL/6 mouse blood at 30 mg/kg, po. Type of series: ADME, organism-based. The conditions noted are these: in vivo.
Series [40] is described as follows: Ratio of drug level in C57BL/6 mouse blood to brain at 1 mg/kg, iv measured after 5 mins. It counts as ADME, organism-based. The conditions noted are these: in vivo.
Series [41] can be described thus: Ratio of drug level in C57BL/6 mouse blood to brain at 10 mg/kg, ip measured at 4 hrs. It counts as ADME, organism-based. As to conditions: in vivo.
The nature of series [42]: Ratio of drug level in C57BL/6 mouse blood to brain at 30 mg/kg, ip measured at 4 hrs. Type of series: ADME, organism-based. As to conditions: in vivo.
The nature of series [43]: Drug level in C57BL/6 mouse brain at 30 mg/kg, ip measured at 4 hrs. It counts as ADME, organism-based. The conditions noted are these: read-out: Drug uptake.
The nature of series [44]: Ratio of drug level in C57BL/6 mouse brain at 30 mg/kg, ip to IC50 for antiproliferative activity against mouse BaF3 cells expressing BCR-ABL by ATP-luminescence assay. It counts as organism-based. The conditions noted are these: in vivo.

T1 sequence (P35372 whole entry): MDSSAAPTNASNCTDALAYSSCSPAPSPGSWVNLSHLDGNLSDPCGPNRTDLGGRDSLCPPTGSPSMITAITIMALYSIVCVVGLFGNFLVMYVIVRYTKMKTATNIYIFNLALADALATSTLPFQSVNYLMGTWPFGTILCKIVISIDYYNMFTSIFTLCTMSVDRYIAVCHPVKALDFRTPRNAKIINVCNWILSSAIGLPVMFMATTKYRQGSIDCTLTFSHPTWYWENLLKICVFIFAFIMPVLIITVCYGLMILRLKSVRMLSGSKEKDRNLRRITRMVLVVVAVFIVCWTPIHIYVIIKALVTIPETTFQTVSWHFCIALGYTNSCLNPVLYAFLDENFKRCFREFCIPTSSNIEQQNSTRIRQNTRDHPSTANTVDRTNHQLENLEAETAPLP
Sequence of Voltage-gated inwardly rectifying potassium channel KCNH2 (Q12809 whole entry): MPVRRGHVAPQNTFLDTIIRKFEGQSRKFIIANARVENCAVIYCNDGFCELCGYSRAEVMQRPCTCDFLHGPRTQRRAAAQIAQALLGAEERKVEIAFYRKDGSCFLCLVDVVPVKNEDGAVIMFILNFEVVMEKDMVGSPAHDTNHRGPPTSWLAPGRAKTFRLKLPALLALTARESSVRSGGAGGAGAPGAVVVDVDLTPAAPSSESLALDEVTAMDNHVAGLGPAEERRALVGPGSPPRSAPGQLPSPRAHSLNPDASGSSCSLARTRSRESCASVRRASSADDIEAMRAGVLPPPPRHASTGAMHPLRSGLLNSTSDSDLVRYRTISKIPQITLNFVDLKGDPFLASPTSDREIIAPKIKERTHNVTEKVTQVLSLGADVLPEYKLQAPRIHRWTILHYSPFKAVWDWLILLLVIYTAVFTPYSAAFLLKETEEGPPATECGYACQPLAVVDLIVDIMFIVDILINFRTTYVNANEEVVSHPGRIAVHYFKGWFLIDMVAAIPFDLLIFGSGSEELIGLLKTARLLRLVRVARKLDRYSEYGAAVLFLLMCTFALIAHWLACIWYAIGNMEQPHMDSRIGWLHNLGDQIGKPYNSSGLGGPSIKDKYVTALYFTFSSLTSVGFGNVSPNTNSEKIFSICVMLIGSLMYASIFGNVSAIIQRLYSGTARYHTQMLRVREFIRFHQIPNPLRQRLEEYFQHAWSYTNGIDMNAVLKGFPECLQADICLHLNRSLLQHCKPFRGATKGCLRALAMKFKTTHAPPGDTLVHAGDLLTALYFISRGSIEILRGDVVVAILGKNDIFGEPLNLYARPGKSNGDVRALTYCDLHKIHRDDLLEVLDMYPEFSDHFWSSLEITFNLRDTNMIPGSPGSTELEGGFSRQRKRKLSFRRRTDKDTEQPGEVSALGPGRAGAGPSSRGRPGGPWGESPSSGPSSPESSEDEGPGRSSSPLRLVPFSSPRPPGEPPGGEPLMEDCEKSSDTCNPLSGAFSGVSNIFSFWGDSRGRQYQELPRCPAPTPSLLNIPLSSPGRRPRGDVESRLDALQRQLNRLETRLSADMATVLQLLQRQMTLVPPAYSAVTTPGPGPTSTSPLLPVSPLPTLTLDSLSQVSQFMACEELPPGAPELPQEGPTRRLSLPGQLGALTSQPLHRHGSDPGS
Sequence of hERG (KCNH2) (Q12809 whole entry): as above
Sequence of Tyrosine-protein kinase ABL1 (P00519 whole entry, the tested form may be a part): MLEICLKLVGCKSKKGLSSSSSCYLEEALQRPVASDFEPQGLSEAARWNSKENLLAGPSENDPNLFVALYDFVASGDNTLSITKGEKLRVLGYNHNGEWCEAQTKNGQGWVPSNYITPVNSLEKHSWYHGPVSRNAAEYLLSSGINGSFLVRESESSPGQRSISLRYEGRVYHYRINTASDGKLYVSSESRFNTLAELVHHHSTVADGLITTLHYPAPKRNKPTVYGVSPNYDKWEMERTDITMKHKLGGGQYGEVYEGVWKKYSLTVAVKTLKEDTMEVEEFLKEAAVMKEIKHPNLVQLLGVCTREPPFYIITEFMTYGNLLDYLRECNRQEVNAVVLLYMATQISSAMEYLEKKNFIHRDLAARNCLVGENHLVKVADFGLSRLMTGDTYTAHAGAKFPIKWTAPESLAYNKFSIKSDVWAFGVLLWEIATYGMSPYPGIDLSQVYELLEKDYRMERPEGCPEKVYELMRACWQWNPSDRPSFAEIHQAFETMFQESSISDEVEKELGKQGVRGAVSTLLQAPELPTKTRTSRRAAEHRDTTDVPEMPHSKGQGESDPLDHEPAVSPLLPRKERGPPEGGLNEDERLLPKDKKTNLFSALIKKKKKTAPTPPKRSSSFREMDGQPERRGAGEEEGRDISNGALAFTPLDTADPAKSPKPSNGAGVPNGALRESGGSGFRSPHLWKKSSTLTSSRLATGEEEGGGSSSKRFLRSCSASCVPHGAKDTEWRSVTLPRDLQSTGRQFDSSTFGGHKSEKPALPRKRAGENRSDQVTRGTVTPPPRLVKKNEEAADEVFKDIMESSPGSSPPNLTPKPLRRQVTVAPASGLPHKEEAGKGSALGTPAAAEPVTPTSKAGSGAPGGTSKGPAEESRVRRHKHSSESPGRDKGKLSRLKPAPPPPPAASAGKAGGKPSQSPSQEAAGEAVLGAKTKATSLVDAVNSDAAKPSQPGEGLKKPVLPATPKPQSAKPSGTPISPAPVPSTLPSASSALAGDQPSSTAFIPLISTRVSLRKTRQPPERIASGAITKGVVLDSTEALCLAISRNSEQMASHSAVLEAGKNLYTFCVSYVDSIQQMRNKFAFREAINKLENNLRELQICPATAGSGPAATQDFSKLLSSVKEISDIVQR

With `O=C(Nc1ccc(OC(F)(F)Cl)cc1)c1cnc(N2CC[C@@H](O)C2)c(-c2ccn[nH]2)c1` [ASCIMINIB], the Drug uptake result in series [1] is on record as “Bld”; in series [2], “Active”; in series [3], 86%; in series [4], 92.7%. In addition, the solubility (thermodynamic) at 72 h in [5] is 4 µg/mL (≈ 8.89 µM); in [6], above 1500 µg/mL. In addition, in series [7], the Papp turned out to be 21.1 ×10⁻⁶ cm/s.

Turning to `O=C(Nc1ccc(OC(F)(F)Cl)cc1)c1cnc(NCCC(O)CO)c(-c2ccn[nH]2)c1` (stereo not drawn), the Drug uptake in series [8] stood at 0.39%.

Turning to `O=C(Nc1ccc(OC(F)(F)F)cc1)c1cncc(-c2cccnc2)c1`, the solubility (thermodynamic) at 72 h in series [5] was 3 µg/mL (≈ 8.35 µM); in series [6], above 1500 µg/mL. Also, the half-inhibitory concentration (IC50) was 0.033 µM in [9]; 0.075 µM in series [10]; 0.197 µM in series [11] (Homo sapiens, KBM-7, 72 h); 1.6 µM in series [12] (Homo sapiens, CMK-86, 72 h); 25 µM in series [13] (Homo sapiens, SNU-213, 72 h); above 30 µM in [14] (Homo sapiens, Fu97, 72 h). In series [10], this molecule showed a concentration for 50% growth inhibition (GI50) of 0.069 µM. Moreover, the “%max” value is on record as 98% in [11] (time 72 hrs), 62% in series [12] (time 72 hrs), 62% in series [13] (time 72 hrs) and 55% in series [14] (time 72 hrs). Moreover, the inhibition in [15] is above 50%. Also, the half-maximal activity concentration (AC50) was 9.78 µM in series [16] and 2.8 µM in series [17]. Further, the inhibition at 0.75 h, 30 µM in series [18] is above 50%. Also, the Papp A→B in series [19] turned out to be 27.1 ×10⁻⁶ cm/s. Moreover, the Papp B→A in series [20] came to 11.1 ×10⁻⁶ cm/s. Moreover, the efflux ratio in series [21] was 0.41; in [22], 1.03. The apparent permeability coefficient (Papp) in series [7] is 24.5 ×10⁻⁶ cm/s. Also, the CLint scaled was 31 mL/min/kg in [23], 56 mL/min/kg in series [24], 30 mL/min/kg in series [25] and 16 mL/min/kg in [26]. Moreover, in series [27], the clearance came out at 17 mL/min/kg. Besides, the Vd in [28] came to 1.2 L/kg. Further, in series [29], the half-life is 0.9 h. For the same molecule, the AUC/dose was 2875 nM·h in [30]; 15720 nM·h in series [31]; 6672 nM·h in series [34]; 27926 nM·h in series [35]; 5139 nM·h in [39]. Besides, the figures for the time of peak concentration (Tmax) in series [32] and in series [37] were 1.8 h and 1 h, respectively. Also, the Cmax/dose in series [33] worked out at 0.643 µM; in series [38] it was 0.629 µM. For the same molecule, the Kp uu in series [36] is 0.91. The Ratio is 3.29 in series [40], 2.32 in series [41], 2.65 in series [42] and 465 in [44]. The concentration at 4 h in series [43] came out at 34.9 µM.

Turning to `O=C1CCN(c2ncc(C(=O)Nc3ccc(OC(F)(F)Cl)cc3)cc2-c2ccn[nH]2)C1`, the Drug uptake in series [8] was 1.88%.

As a reminder, the solubility (thermodynamic) is the concentration in solution at equilibrium with solid. A word on the Papp: it is a coefficient for how fast a substance crosses the barrier. A word on the IC50: it is the concentration that inhibits the measured activity by half. The GI50 is the concentration at which growth is held to half of that of the control. Lower therefore signals greater sensitivity of the cells. By inhibition is commonly meant the relative decrease from the control value, in per cent. In general, AC50 refers to the concentration at which the activity in the assay is half-maximal. The term Papp A→B denotes how fast a substance crosses the layer from the apical side. A word on the Papp B→A: it is how fast a substance crosses the layer from the basolateral side. What is called efflux ratio is the permeability from basolateral to apical divided by that in the opposite direction, in the common usage. The clearance is the volume of plasma or blood freed of the substance per unit of time. What is called half-life is the time needed for the level to fall by half in the phase considered. As a reminder, the Tmax is the time at which the peak concentration occurs.
